# Laboratory results taken from patent US8193191B2, “Urotensin II receptor antagonists” (Janssen Pharmaceutica N.V., priority 2006, dated 2012).
# Where “and” joins values, the source holds several entries; their conditions need not be identical. Identical values can stand only once.
# Molecular target: T1, rat GPR14 (U-II receptor) (Rattus norvegicus, UniProt P49684)
# T1 construct: expressed in transfected cells
# T1 sequence (P49684 1-386): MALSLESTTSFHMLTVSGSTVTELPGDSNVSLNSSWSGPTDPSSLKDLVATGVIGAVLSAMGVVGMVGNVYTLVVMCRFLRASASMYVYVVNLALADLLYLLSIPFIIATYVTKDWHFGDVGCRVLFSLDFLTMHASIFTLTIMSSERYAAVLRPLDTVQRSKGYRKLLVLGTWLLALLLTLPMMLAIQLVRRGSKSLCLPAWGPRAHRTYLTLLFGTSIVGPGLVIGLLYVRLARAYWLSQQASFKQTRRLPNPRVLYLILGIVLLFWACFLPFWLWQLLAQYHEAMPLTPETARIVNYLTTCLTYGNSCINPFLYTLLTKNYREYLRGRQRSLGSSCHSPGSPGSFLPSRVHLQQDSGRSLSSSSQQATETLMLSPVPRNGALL
# Assay: Rat UII Calcium Mobilization FLIPR Assay
# Type: cell-based
# Settings: for inhibition at 10 µM / inhibition at 50 µM: CHO, 5 min, agonist-induced Ca2+ mobilization (FLIPR), CHO cells with rat UII receptor; for inhibition at 10 µM: 10 μM compound, read-out: % I @ 10; for inhibition at 50 µM: 50 μM compound, read-out: % I @ 50; for IC50: Inhibition of Acetyl-cyclic[Cys-Phe-Trp-Lys-(2-Nal)-Cys]-NH2 induced Ca2+ mobilization (FLIPR) in CHO cells transfected with rat UII receptor, read-out: IC50
# Excerpt: To derive these cells, the complete coding sequence of rat U-II (Genbank Accession No. U32673) was amplified by nested PCR from rat heart marathon-Ready cDNA. […] The PCR products were cloned into pcDNA3 (Invitrogen) digested with EcoR I and Xba I. Clones containing rat U-II receptor were verified by complete sequencing of the U-II receptor insert to ensure a lack of PCR-introduced errors. The constructed vector was transfected into CHO cells by using lipofectamine (GIBCO BRL). CHO cells with high expression of rat U-II receptor were selected and established as stable cell lines by using G418. CHO cells were seeded at 25,000 cells per well into 96-well, black-wall, clear-bottom microtiter plates 24 h before assay. Cells in culture media (DMEM/F12 containing 15 mM HEPES, L-glutamine, pyridoxine hydrochloride; 10% fetal bovine serum; 1 mg/mL G418 sulfate; antibiotic-antimycotic; pH 7.4) were loaded with proprietary dye, from the FLIPR Calcium Assay Kit (Molecular Devices), prepared in assay buffer (Hanks Balanced Salts Solution, 20 mM HEPES, 0.1% BSA, 2.5 mM probenecid, pH 7.4), and incubated for 1 h at 37° C. Calcium mobilization determinations were performed at room temperature (23° C.).
compound,measurement,value
"COc1ccc(CN2C(=O)c3c(Cl)ccc(N4CCN([C@H](C)c5ccccc5)CC4)c3C2=O)cc1OC [Cpd 10, 4-chloro-2-(3,4-dimethoxy-benzyl)-7-[4-(1R)-(1-phenyl-ethyl)-piperazin-1-yl]-isoindole-1,3-dione]",inhibition at 10 µM,100%
same,inhibition at 50 µM,106%
same,IC50,0.21 µM
"COc1cc2c(cc1OC)C(N1C(=O)c3cccc(N4CCN(Cc5ccccc5)CC4)c3C1=O)CC2 (stereo not drawn) [Cpd 11, 4-(4-benzyl-piperazin-1-yl)-2-(5,6-dimethoxy-indan-1-yl)-isoindole-1,3-dione]",inhibition at 10 µM,100%
same,inhibition at 50 µM,101%
same,IC50,0.34 µM
"COc1ccc(CN2C(=O)c3cccc(N4CCN([C@@H](C)c5ccccc5)CC4)c3C2=O)cc1OC [Cpd 14, 2-(3,4-dimethoxy-benzyl)-4-[4-(1S)-(1-phenyl-ethyl)-piperazin-1-yl]-isoindole-1,3-dione]",inhibition at 10 µM,98%
same,inhibition at 50 µM,101%
same,IC50,0.49 µM
"COc1ccc(CN2C(=O)c3cccc(N4CCN(Cc5c(F)cccc5F)CC4)c3C2=O)cc1OC [Cpd 16, 4-[4-(2,6-difluoro-benzyl)-piperazin-1-yl]-2-(3,4-dimethoxy-benzyl)-isoindole-1,3-dione]",inhibition at 10 µM,91%
same,inhibition at 50 µM,97%
same,IC50,0.86 µM and 1.1 µM
"COc1ccc(CN2C(=O)c3cccc(N4CCN(C5CCc6ccccc65)CC4)c3C2=O)cc1OC (stereo not drawn) [Cpd 20, 2-(3,4-dimethoxy-benzyl)-4-(4-indan-1-yl-piperazin-1-yl)-isoindole-1,3-dione]",inhibition at 10 µM,78%
same,inhibition at 50 µM,15%
same,IC50,1.5 µM
"CCOc1cc(CN2C(=O)c3cccc(N4CCN([C@H](C)c5ccccc5)CC4)c3C2=O)ccc1OC [Cpd 21, 2-(3-ethoxy-4-methoxy-benzyl)-4-[4-(1R)-(1-phenyl-ethyl)-piperazin-1-yl]-isoindole-1,3-dione]",inhibition at 10 µM,90%
same,inhibition at 50 µM,98%
same,IC50,1.7 µM
"COc1ccc(CN2C(=O)c3cccc(N4CCN(CCc5ccccc5)CC4)c3C2=O)cc1OC [Cpd 22, 2-(3,4-dimethoxy-benzyl)-4-(4-phenethyl-piperazin-1-yl)-isoindole-1,3-dione]",inhibition at 10 µM,100%
same,inhibition at 50 µM,100%
same,IC50,1.9 µM
"Cc1nn(C)c(C)c1CN1C(=O)c2cccc(N3CCN(Cc4ccccc4)CC3)c2C1=O [Cpd 23, 4-(4-benzyl-piperazin-1-yl)-2-(1,3,5-trimethyl-1H-pyrazol-4-ylmethyl)-isoindole-1,3-dione]",inhibition at 10 µM,62%
same,inhibition at 50 µM,101%
same,IC50,1.9 µM
"COc1ccc(CN2C(=O)c3cccc(N4CCN(Cc5ccc(F)cc5F)CC4)c3C2=O)cc1OC [Cpd 24, 4-[4-(2,4-difluoro-benzyl)-piperazin-1-yl]-2-(3,4-dimethoxy-benzyl)-isoindole-1,3-dione]",inhibition at 10 µM,96%
same,inhibition at 50 µM,100%
same,IC50,2.1 µM
"COc1ccc(CCN2C(=O)c3cccc(N4CC5CCC(C4)N5Cc4ccccc4)c3C2=O)cc1OC [Cpd 25, 4-(8-benzyl-3,8-diaza-bicyclo[3.2.1]oct-3-yl)-2-[2-(3,4-dimethoxy-phenyl)-ethyl]-isoindole-1,3-dione]",inhibition at 10 µM,90%
same,inhibition at 50 µM,100%
same,IC50,2.8 µM
"COc1cc(CN2C(=O)c3cccc(N4CC5CCC(C4)N5Cc4ccccc4)c3C2=O)cc(OC)c1OC [Cpd 26, 4-(8-benzyl-3,8-diaza-bicyclo[3.2.1]oct-3-yl)-2-(3,4,5-trimethoxy-benzyl)-isoindole-1,3-dione]",inhibition at 10 µM,81%
same,inhibition at 50 µM,94%
same,IC50,3.4 µM
"COc1ccc(CN2C(=O)c3cccc(N4CCN(C(c5ccccc5)C5CC5)CC4)c3C2=O)cc1OC (stereo not drawn) [Cpd 27, 4-[4-(cyclopropyl-phenyl-methyl)-piperazin-1-yl]-2-(3,4-dimethoxy-benzyl)-isoindole-1,3-dione]",inhibition at 10 µM,78%
same,inhibition at 50 µM,100%
same,IC50,3.8 µM
"COc1ccc(CN2C(=O)c3cccc(N4CCN(Cc5cc(F)ccc5F)CC4)c3C2=O)cc1OC [Cpd 29, 4-[4-(2,5-difluoro-benzyl)-piperazin-1-yl]-2-(3,4-dimethoxy-benzyl)-isoindole-1,3-dione]",inhibition at 10 µM,77%
same,inhibition at 50 µM,95%
same,IC50,4.4 µM
"COc1ccc([C@H](CC(=O)O)N2C(=O)c3cccc(N4CCN([C@H](C)c5ccccc5)CC4)c3C2=O)cc1OC [Cpd 30, (S)-3-(3,4-dimethoxy-phenyl)-3-{1,3-dioxo-4-[4-(1R)-(1-phenyl-ethyl)-piperazin-1-yl]-1,3-dihydro-isoindol-2-yl}-propionic acid]",inhibition at 10 µM,80%
same,inhibition at 50 µM,99%
same,IC50,4.4 µM
"COc1ccc(CN2C(=O)c3cccc(N4CCN(Cc5ccccc5Cl)CC4)c3C2=O)cc1OC [Cpd 31, 4-[4-(2-chloro-benzyl)-piperazin-1-yl]-2-(3,4-dimethoxy-benzyl)-isoindole-1,3-dione]",inhibition at 10 µM,65%
same,inhibition at 50 µM,89%
same,IC50,4.5 µM
"COc1ccc(CN2C(=O)c3cccc(N4CC5CCC(C4)N5C(C)c4ccccc4)c3C2=O)cc1OC (stereo not drawn) [Cpd 32, 2-(3,4-dimethoxy-benzyl)-4-[8-(1-phenyl-ethyl)-3,8-diaza-bicyclo[3.2.1]oct-3-yl]-isoindole-1,3-dione]",inhibition at 10 µM,73%
same,inhibition at 50 µM,93%
same,IC50,4.9 µM
"COc1ccc(CN2C(=O)c3cccc(N4CCN(Cc5ccccc5C)CC4)c3C2=O)cc1OC [Cpd 33, 2-(3,4-dimethoxy-benzyl)-4-[4-(2-methyl-benzyl)-piperazin-1-yl]-isoindole-1,3-dione]",inhibition at 10 µM,60%
same,inhibition at 50 µM,97%
same,IC50,5 µM
"COc1cc(CN2C(=O)c3cccc(N4CCN(Cc5ccccc5)CC4)c3C2=O)cc(OC)c1OC [Cpd 34, 4-(4-benzyl-piperazin-1-yl)-2-(3,4,5-trimethoxy-benzyl)-isoindole-1,3-dione]",inhibition at 10 µM,64%
same,inhibition at 50 µM,94%
same,IC50,5.9 µM
"C#CC(c1ccccc1)N1CCN(c2cccc3c2C(=O)N(Cc2ccc(OC)c(OC)c2)C3=O)CC1 (stereo not drawn) [Cpd 35, 2-(3,4-dimethoxy-benzyl)-4-[4-(1-phenyl-prop-2-ynyl)-piperazin-1-yl]-isoindole-1,3-dione]",inhibition at 10 µM,55%
same,inhibition at 50 µM,65%
same,IC50,6.3 µM
"COc1ccc(CN2C(=O)c3cccc(N4CCN(Cc5cccc(C)c5)CC4)c3C2=O)cc1OC [Cpd 36, 2-(3,4-dimethoxy-benzyl)-4-[4-(3-methyl-benzyl)-piperazin-1-yl]-isoindole-1,3-dione]",inhibition at 10 µM,63%
same,inhibition at 50 µM,82%
same,IC50,6.5 µM
"COc1ccc(CN2C(=O)c3cccc(N[C@@H]4CCCC[C@H]4NCc4ccccc4)c3C2=O)cc1OC [Cpd 37, 4-(1R,2R)-(2-benzylamino-cyclohexylamino)-2-(3,4-dimethoxy-benzyl)-isoindole-1,3-dione]",inhibition at 10 µM,62%
same,inhibition at 50 µM,71%
same,IC50,6.9 µM
"COc1ccc(CN2C(=O)c3cccc(N4CCN(Cc5ccccc5C#N)CC4)c3C2=O)cc1OC [Cpd 38, 2-{4-[2-(3,4-dimethoxy-benzyl)-1,3-dioxo-2,3-dihydro-1H-isoindol-4-yl]-piperazin-1-ylmethyl}-benzonitrile]",inhibition at 10 µM,56%
same,inhibition at 50 µM,94%
same,IC50,7.6 µM
"O=C1c2cccc(N3CC4CCC(C3)N4Cc3ccccc3)c2C(=O)N1Cc1ccncc1 [Cpd 39, 4-(8-benzyl-3,8-diaza-bicyclo[3.2.1]oct-3-yl)-2-pyridin-4-ylmethyl-isoindole-1,3-dione]",inhibition at 10 µM,47%
same,inhibition at 50 µM,101%
same,IC50,8.9 µM
"COc1ccc(CN2C(=O)c3cccc(N4CCN(Cc5ccc(C)cc5)CC4)c3C2=O)cc1OC [Cpd 40, 2-(3,4-dimethoxy-benzyl)-4-[4-(4-methyl-benzyl)-piperazin-1-yl]-isoindole-1,3-dione]",inhibition at 10 µM,47%
same,inhibition at 50 µM,87%
same,IC50,9 µM
"CCCOc1ccc(CN2C(=O)c3cccc(N4CCN([C@H](C)c5ccccc5)CC4)c3C2=O)cc1OC [Cpd 41, 2-(3-methoxy-4-propoxy-benzyl)-4-[4-(1R)-(1-phenyl-ethyl)-piperazin-1-yl]-isoindole-1,3-dione]",inhibition at 10 µM,57%
same,inhibition at 50 µM,69%
same,IC50,9.8 µM
